Laboratory results from patent US20030129168A1, “Expression of proteins for treating asthma via ligand mediated activation of their encoding genes” (ARIAD Gene Therapeutics, Inc., priority 1996, published 2003).
Read-outs that look alike come from different tables or passages of the source.

Columns and labels:
[1] = Immunosuppressive activity
[2] = tested on: cells; test: Toxicity in cell culture; assay type: cell-based
[3] = tested on: ZFHD1-FKBPx3 and FKBPx3-VP16 or FKBPx3-p65; test: Dimerizer-dependent transcriptional activation (SEAP) in transiently transfected 293 cells; assay type: cell-based
Method: 293 cells were grown in D-MEM (Gibco BRL) supplemented with 10% Bovine Calf Serum. Cells in 35 mm dishes (2.5×10^5 cells/dish) were transiently transfected with use of calcium phosphate precipitation (Ausubel et. al., 1994). Each dish received 375 ng pZHWTx8SVSEAP; 12ng pCGNNZFHD1-FKBPx3 and 25ng pCGNNFKBPx3-VP16 or pCGNNFKBPx3-p65. Following transfection, 2 ml fresh media was added and supplemented with FK1012 to the desired concentration. After a 24 hour incubation […] aliquot of media was removed and assayed for SEAP activity as described (Spencer et. al., 1993).
An analgous experiment was conducted using a wholly synthetic dimerizer, AP1510, in place of FK1012. Like FK1012, AP1510 is a divalent FKBP-binder and is capable of dimerizing chimeric proteins which contain FKBP domains. In this experiment, 293 cells were grown in DMEM supplemented with 10% Bovine Calf Serum. Cells in 10 cm dishes were transiently transfected by calcium phosphate precipitation (Natesan and Gilman, 1995, Mol. Cell Biol, 15, 5975-5982). Each plate received 1 μg of pZHWTx8SVSEAP reporter, 50 ng pCGNNZFHD1-FKBP3×3, 50 ng pCGNNF3p65 or pCGNNF3VP16. Following transfection, 2 ml fresh media was added and supplemented with AP1510 to the desired concentration. After 24 hrs, 100 μl of the media was assayed for SEAP activity as described (Spencer et al, 1993).

[4] = tested on: FKBP12-containing fusion proteins; test: Gene regulation applications of dimerizer (SEAP or hGH reporter systems); assay type: cell-based; conditions: for transcription activation with stably integrated constructs: cells in which the transcription factor and reporter gene constructs are all stably integrated
Method: After overnight incubation (or longer), assay for target gene expression.
Secreted alkaline phosphatase activity can be easily measured from the supernatant of appropriately transfected cells using fluorescence-(see (10)), or chemiluminescence-(Tropix, Bedford, Mass.) based assays. Samples to be tested should first be incubated at 65° C. for 1 hour to inactivate endogenous alkaline phosphatase activity.

[5] = Solubility of AP1510 in culture medium; assay type: physicochemical; conditions: aqueous buffer, kinetic from ethanol stock; serial dilution in (aqueous) culture medium; read-out: highest concentration ensuring complete solubility
Method: In the latter case it is recommended that the highest concentration not exceed 5 uM, to ensure complete solubility in the (aqueous) medium. […]

[6] = tested on: myristoylated chimeric CD3/FKBP12 (MZF3E) receptor; test: FK1012 activation of myristoylated chimeric CD3/FKBP12 (MZF3E) receptor, NFAT SEAP reporter in Jurkat T cells; assay type: cell-based, human
From the text: In an illustrative case, this was accomplished by creating an intracellular receptor comprised of a small fragment of Src sufficient for posttranslational myristoylation (M), the cytoplasmic tail of zeta (Z; a component of the […] was also used), three consecutive FKBP12s (F3) and a flu epitope tag (E). […] The promoter of the SEAP reporter gene was constructed to be transcriptionally activated by nuclear factor of activated T cells (NFAT), which is assembled in the nucleus following TCR-signaling.
Specifically, 5 μg of the eukaryotic expression vector, pBJ5, containing a myristoylated chimeric receptor was co-transfected with 4 μg NFAT-SX. MZE, MZF1E, MZF2E and MZF3E contain 0, 1, 2, or 3 copies of FKBP12, respectively, downstream of a myristoylated CD3 cytoplasmic domain (see FIG. 2 of PCT/US94/01617). As a control, 5 μg of pBJ5 was used in a parallel transfection. After 24 hours, aliquots of each transfection containing approximately 10^5 cells were incubated with log dilutions of the drug, FK1012B, as indicated. As a positive control and to control for transfection efficiency, ionomycin (1 μm) and PMA (25 ng/ml) were added to aliquots from each transfection. After an additional 12 hour incubation, the supernatants were assayed for alkaline phosphatase activity and these activities were expressed relative to that of the positive control samples. […] Compare FIGS. 7 and 8 of PCT/US94/01617.

[7] = tested on: MZF3Eflu and MZF3Eflag; test: Coimmunoprecipitation of epitope-tagged chimeras in Jurkat T cells (in vivo FK1012-induced protein dimerization); assay type: cell-based, human
Method: The following experiments confirmed that intracellular aggregation of the MZF3E receptor is indeed induced by the FK1012. The influenza haemagglutinin epitope-tag (flu) of the MZF3E-construct was exchanged with a different epitope-tag (flag-M2). The closely related chimeras, MZF3Eflu and MZF3Eflag, were coexpressed in Jurkat T cells. Immunoprecipitation experiments using anti-Flag-antibodies coupled to agarose beads were performed after the cells were treated with FK1012A. […] In absence of FK1012A, no coimmunoprecipitation of MZF3Eflu is observed. […] This reflects the requirement for aggregation observed with both the endogenous T cell receptor and our artificial receptor MZF3E.

[8] = tested on: zeta-chain; test: In vitro kinase assay after immunoprecipitation, Jurkat cells stably transfected with MZF3E; assay type: cell-based, human
[9] = tested on: ZFHD1-FKBPx3 and FRAP-p65; test: Rapamycin-dependent hGH expression in transfected HT1080 cells in culture; assay type: cell-based; conditions: HT1080 cells in cell culture
Method: (§1) Using the approach described in Example 7, constructs were prepared encoding the ZFHD1-FKBPx3 fusion protein, a second fusion protein containing the FKBP:rapaymcin binding (“FRB”) region of FRAP linked to the p6^5 activation domain, and a reporter cassette containing a gene encoding human growth hormone linked to multiple ZFHD1 binding sites. The natural product, rapamycin, forms a ternary complex with FKBP12 and FRAP. Similarly, rapamycin is capable of binding to one or more of the FKBP domains and FRAP FRB domains of the fusion proteins.

[10] = tested on: ZFHD1-FKBPx3 and FRAP-p65; test: Rapamycin-dependent hGH expression in nu/nu mice implanted with transfected cells; assay type: in vivo; conditions: rapamycin i.v. 10-10,000 μg/kg, serum 17 hours after administration
Method: as §1
2×10^6 cells from the transfected […] culture were administered to nu/nu mice by intramuscular injection. Following cell implantation, rapamycin was administered i.v. over a range of doses (from 10-10,000 μg/kg). Serum samples were collected from the mice 17 hours after rapamycin administration. Control groups consisted of mice that received no cells but 1.0 mg/kg rapamycin (i.v.) as well as mice that received the cells but no rapamycin.

[11] = target: T1, FKBP12 (Homo sapiens, UniProt P62942); test: FK1012 binding affinity and stoichiometry; conditions: linker positioned in the calcineurin binding domain of FK506
T1 sequence (P62942 whole entry, the tested form may be a part): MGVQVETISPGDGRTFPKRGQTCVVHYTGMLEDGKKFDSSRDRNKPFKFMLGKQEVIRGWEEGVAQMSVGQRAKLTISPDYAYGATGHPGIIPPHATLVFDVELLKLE

[12] = tested on: Jurkat cells stably transfected with MZF3E; test: Protein-tyrosine phosphorylation in whole cell lysates (alpha-phosphotyrosine antibodies); assay type: cell-based, human; conditions: whole cell lysates at varying times after stimulation
From the text: The intracellular domains of the TCR, CD3 and zeta-chains interact with cytoplasmic protein tyrosine kinases following antigen stimulation. Specific members of the Src family (lck and/or fyn) phosphorylate one or more tyrosine residues of activation motifs within these intracellular domains (tyrosine activation motif, TAM). The tyrosine kinase ZAP-70 is recruited (via its two SH2 domains) to the tyrosine phosphorylated T-cell-receptor, activated, and is likely to be involved in the further downstream activation of phospholipase C. […] Tyrosine phosphorylation after treatment of cells with either anti-CD3 MAb or FK1012 was detected using monoclonal alpha-phosphotyrosine antibodies. Whole cell lysates were analysed at varying times after stimulation. […] The pattern consisted of a major band of 70 kDa, probably ZAP-70, and minor bands of 120 kDa, 62 kDa, 55 kDa and 42 kDa.

[13] = target: T1, FKBP12; conditions: 2:1 stoichiometry, cited from earlier work
[14] = tested on: calcineurin-mediated TCR signaling; conditions: cited from earlier work
[15] = tested on: cells; conditions: in cell culture; cited from earlier work
[16] = in vivo

Molecule: CCC(C)(C)C(=O)C(=O)N1CCCC[C@H]1C(=O)O[C@H](CCc1ccc(OC)c(OC)c1)c1cccc(OCC(=O)NCCNC(=O)COc2cccc([C@@H](CCc3ccc(OC)c(OC)c3)OC(=O)[C@@H]3CCCCN3C(=O)C(=O)C(C)(C)CC)c2)c1 [AP1510]
- immunosuppressive activity [1]: no immunosuppressive activity
- toxicity to cells [2]: non-toxic to cells
- dimerizer-dependent transcriptional activation ([3]; 24 hrs): supports synthetic dimerizer-dependent transcriptional activation
- transcription activation with stably integrated constructs [4]: activates transcription efficiently
- concentration at which expression becomes detectable ([4]; gene regulation applications): approximately 10 nM
- concentration at which expression peaks ([4]; gene regulation applications): approximately 100 nM
- transcription activation compared with FK1012 ([4]; gene regulation applications): activates transcription at lower concentrations and to a higher level than PK1012
- solubility [5]: ≤ 5 µM

Molecule: CO[C@H]1C[C@@H](C)C/C(C)=C/[C@@H](CCOC(=O)NCc2ccccc2)C(=O)C[C@H](O)[C@@H](C)[C@@H](/C(C)=C/[C@@H]2CC[C@@H](O)[C@H](OC)C2)OC(=O)[C@@H]2CCCCN2C(=O)C(=O)[C@]2(O)O[C@H]1[C@@H](OC)C[C@H]2C [FK506-M]
- termination of FK1012-induced signaling [6]: can be terminated by a deaggregation process
- toxicity to cells [2]: nontoxic

Molecule: CO[C@H]1C[C@@H](C)C/C(C)=C/[C@@H](CCOC(=O)NCc2ccc(CNC(=O)OCC[C@@H]3/C=C(\C)C[C@H](C)C[C@H](OC)[C@H]4O[C@@](O)(C(=O)C(=O)N5CCCC[C@H]5C(=O)O[C@H](/C(C)=C/[C@@H]5CC[C@@H](O)[C@H](OC)C5)[C@H](C)[C@@H](O)CC3=O)[C@H](C)C[C@@H]4OC)cc2)C(=O)C[C@H](O)[C@@H](C)[C@@H](/C(C)=C/[C@@H]2CC[C@@H](O)[C@H](OC)C2)OC(=O)[C@@H]2CCCCN2C(=O)C(=O)[C@]2(O)O[C@H]1[C@@H](OC)C[C@H]2C [FK1012]
- dimerization of FKBP monomer constructs MZF1Eflu and MZF1Eflag [7]: also dimerized by FK1012A
- coimmunoprecipitation of MZF3Eflu with MZF3Eflag ([7]; FK1012A 1 μM, anti-Flag agarose beads): is coimmunoprecipitated with MZF^3Eflag
- recruitment of kinase activity to the zeta-chain [8]: resulted in the recruitment of kinase activity to the zeta-chain

Molecule: CO[C@H]1C[C@@H]2CC[C@@H](C)[C@@](O)(O2)C(=O)C(=O)N2CCCC[C@H]2C(=O)O[C@H]([C@H](C)C[C@@H]2CC[C@@H](O)[C@H](OC)C2)CC(=O)[C@H](C)/C=C(\C)[C@@H](O)[C@@H](OC)C(=O)[C@H](C)C[C@H](C)/C=C/C=C/C=C/1C [rapamycin]
- rapamycin-dependent expression of the hGH gene [9]: support rapamycin-dependent expression of the hGH gene in cell culture
- expression of hGH (circulating hGH) [10]: Dose-responsive expression of hGH was observed

Molecule: FK1012
- EC50 ([6]; MZF3E in human (Jurkat) T cells, NFAT-driven SEAP reporter, read-out: EC50, secretion of alkaline phosphatase (SEAP)): 50 nM
- FKBP12 binding [11]: leaving FKBP12 binding unaffected
- immunosuppressive activity [1]: abolishes immunosuppressive activity
- pattern of tyrosine-phosphorylated proteins [12]: A similar pattern of tyrosine-phosphorylated proteins was observed
- concentration of peak transcriptional activation ([3]; 24 hour incubation): 100 nM
- transcription activation with stably integrated constructs [4]: poor
- Kd ([13]; first binding event, read-out: Kd(1)): 0.1 nM
- Kd ([13]; second binding event, read-out: Kd(2)): 0.8 nM
- inhibition of calcineurin-mediated TCR signaling / signalling pathways [14]: not inhibit calcineurin-mediated TCR signaling
- toxic (not toxic up to) [15]: > 0.1 mM

Molecule: hGH: human growth hormone
- hGH clearance half-life [16]: less than 2 minutes
- time to undetectable hGH levels [16]: ≤ 30 min
